Test results as given in patent US20200146314A1, “TRACE MINERAL COMPOSITION” (Nutreco IP Assets B.V., priority 2017, published 2020).
Marks after values point to notes of the source that are not given here.

Tested on: broiler chickens
Experiment: Effect of iron source and level on hemoglobin, hematocrit, performance and iron bioavailability (slope-ratio) of iron-depleted broiler chicks
Format: in vivo
Details: for Efficiency / Gain / Hematocrit / Intake: from day 7
Method: Experiments were conducted to determine the effect of trace mineral level and source on hemoglobin, hematocrit and performance of broiler chickens. Bioavailability of iron was determined by the common-intercept multiple linear regression (slope-ratio) method (S. Aoyagi and D. H. Baker, Nutritional evaluation of a copper-methionine complex for chicks, Poult. Sci. 1993; 72:2309-15). For the first 7 days, chicks were fed a semi-purified diet based on dextrose, corn starch and casein (see Table 1), but with a low level of corn in order to encourage food intake. The calculated iron concentration was 25 ppm and the adaptation period was done in order to deplete iron stores received via the egg.
Beginning on day 7, chicks were provided experimental diets containing the three iron sources added to the basal diet as tabulated below. The three iron sources are commercial grade iron sulphate (FeSO4) (Comparative Example A), siderite (Comparative Example B) and agglomerated particles of starch and crystallites of iron(II) carbonate (Example 1; in accordance with the disclosure) (see Table 2). The agglomerated particles were prepared by grinding siderite to a d90 value below 5 subsequently mixing the ground iron(II) carbonate, starch and water, and spray drying the dispersion. The resulting agglomerated particles have a mean particle size of […]; the content of iron(II) carbonate is 36.94 wt %, based on the total weight of the agglomerated particles.
Birds were raised in Petersime batteries and all metal (feeders, waterers, raised wire floors) in contact with the birds was stainless steel. Water was deionized.
Statistical Analysis: Hemoglobin, hematocrit and performance data were regressed against dietary iron level for each source to obtain linear dose response relationships and bioavailability was calculated from the ratio of the slopes to that of FeSO4. Data (excluding the basal treatment) was also analyzed as a […]×4 level factorial arrangement of treatments. Slope ratios were calculated using the 0, 15, and 25 ppm added levels.

[1] = 15 ppm added iron in basal diet
[2] = 25 ppm added iron in basal diet

O=S(=O)([O-])[O-].[Fe+2] [Comparative Example A, iron sulphate (FeSO4)]
Efficiency [1]: 0.59 gain/feed
Gain [1]: 523.9 g/chick
Hematocrit [1]: 38.3%
Intake [1]: 888.2 g/chick
Efficiency [2]: 0.62 gain/feed
Gain [2]: 548.5 g/chick
Hematocrit [2]: 37.2%
Intake [2]: 884.0 g/chick
Efficiency, main effect mean for iron source (across all levels): 0.61 gain/feed
Gain, main effect mean for iron source (across all levels): 531.8 g/chick
Hematocrit, main effect mean for iron source (across all levels): 37.3%
Intake, main effect mean for iron source (across all levels): 867.5 ^a g/chick
